Results from paper PMC10989005, “Inter-phylum circulation of a beta-lactamase-encoding gene: a rare but observable event” (Antimicrobial Agents and Chemotherapy, 2024).

Molecular target: T1, MUN-1 beta-lactamase
T1 construct: gene blaMUN-1; full gene cloned in pTOPO-kanR, expressed in E. coli TOP10, purified by ion exchange; no tag mentioned
Assay: beta-lactamase inhibition
Type: biochemical, Escherichia coli
Details: covalent (known mechanism); reporter substrate and buffer only in supplement

Row | SMILES | IC50 [nM]
1 | NC(=O)[C@@H]1CC[C@@H]2CN1C(=O)N2OS(=O)(=O)O [avibactam] | 3.8
2 | O=C(O)[C@H]1/C(=C/CO)O[C@@H]2CC(=O)N21 [clavulanic acid] | 0.32
3 | C[C@]1(Cn2ccnn2)[C@H](C(=O)O)N2C(=O)C[C@H]2S1(=O)=O [tazobactam] | 0.8

Molecular target: T1, MUN-1 beta-lactamase
Assay: kinetic measurement, purified beta-lactamase
Type: biochemical, Escherichia coli
Details: covalent (acylation without deacylation suggested); details in supplement
Excerpt: kinetic measurement, purified beta-lactamase on MUN-1 beta-lactamase

Row | SMILES | Ki [nM]
4 | CC(C)(O/N=C(\C(=O)N[C@@H]1C(=O)N2C(C(=O)[O-])=C(C[n+]3ccccc3)CS[C@H]12)c1csc(N)n1)C(=O)O [Ceftazidime] | 580
5 | CCN1CCN(C(=O)N[C@@H](C(=O)N[C@@H]2C(=O)N3[C@@H]2SC(C)(C)[C@@H]3C(=O)O)c2ccccc2)C(=O)C1=O [Piperacillin] | 7.2

Same assay, conditions: details in supplement

Row | SMILES | Ki [nM]
6 | C[C@@H](O)[C@H]1C(=O)N2C(C(=O)O)=C(S[C@@H]3CN[C@H](C(=O)Nc4cccc(C(=O)O)c4)C3)[C@H](C)[C@H]12 [Ertapenem] | 17
7 | C[C@@H](O)[C@H]1C(=O)N2C(C(=O)O)=C(SCCN=CN)C[C@H]12 [Imipenem] | 1.3
8 | C[C@@H](O)[C@H]1C(=O)N2C(C(=O)O)=C(S[C@@H]3CN[C@H](C(=O)N(C)C)C3)[C@H](C)[C@H]12 [Meropenem] | 19
9 | CC1(C)S[C@@H]2[C@H](NC(=O)[C@H](C(=O)O)c3ccsc3)C(=O)N2[C@H]1C(=O)O [Ticarcillin] | 3.6

Tested on: T1, MUN-1 beta-lactamase
Assay: hydrolysis kinetics, purified beta-lactamase
Type: biochemical, Escherichia coli
Details: details in supplement; read-out: Kinetic measurement / Km
Excerpt: hydrolysis kinetics, purified beta-lactamase on MUN-1 beta-lactamase

Row | SMILES | Km [µM]
10 | CC1(C)S[C@@H]2[C@H](NC(=O)[C@H](N)c3ccccc3)C(=O)N2[C@H]1C(=O)O [Ampicillin] | 280
11 | C[C@H]1[C@H](NC(=O)/C(=N\OC(C)(C)C(=O)O)c2csc(N)n2)C(=O)N1S(=O)(=O)O [Aztreonam] | 45
12 | CC(=O)OCC1=C(C(=O)O)N2C(=O)[C@@H](NC(=O)Cc3cccs3)[C@H]2SC1 [Cephalothin] | 15
13 | CC1(C)S[C@@H]2[C@H](NC(=O)Cc3ccccc3)C(=O)N2[C@H]1C(=O)O [Penicillin G] | 95
